Test results as given in paper PMC7193943 (European journal of medicinal chemistry, 2019).

Experiments:
[1] = system: H2228 cells
[2] = Solubility in aqueous media; assay type: physicochemical
[3] = system: ALK-positive H2228 and ALK-negative H441 cells; test: Live cell tracer uptake assay; assay type: cell-based, human; settings: after 30 min of incubation
[4] = system: P-glycoprotein efflux transporter; settings: Caco-2 colorectal adenocarcinoma cells; cited from earlier work
[5] = mice, 24 h after oral administration; cited from earlier work
[6] = system: H441 cells; test: Cytotoxicity assay; assay type: cell-based, human; settings: 72 h

## C[C@@H](Oc1cc(-c2cnn(C3CCN(CCF)CC3)c2)cnc1N)c1c(Cl)ccc(F)c1Cl [Compound 1, 3-((R)-1-(2,6-dichloro-3-fluorophenyl)ethoxy)-5-(1-(fluoroethylpiperidin-4-yl)-1H-pyrazol-4-yl)pyridin-2-amine]
[1]
  fold loss of potency versus parent drug: less than 3 fold
[2]
  solubility in saline or PBS solutions: not soluble

## Cc1cc(Nc2ncc(Cl)c(Nc3ccccc3S(=O)(=O)C(C)C)n2)c(OC(C)C)cc1C1CCN(CCF)CC1 [[^18F]9]
[3]
  cell-associated radioactivity, H2228 vs H441: higher uptake in the ALK-positive H2228 cells
[2]; water or saline
  solubility in water or saline: insoluble

## CCc1cc2c(cc1N1CCC(N3CCOCC3)CC1)C(C)(C)c1[nH]c3cc(C#N)ccc3c1C2=O [Alectinib, 9-Ethyl-6,6-dimethyl-8-[4-(morpholin-4-yl)piperidin-1-yl]-11-oxo-6,11-dihydro-5H-benzo[b]carbazole-3-carbonitrile]
[4]
  transport by the P-glycoprotein efflux transporter: not transported

## Cc1cc(Nc2ncc(Cl)c(Nc3ccccc3S(=O)(=O)C(C)C)n2)c(OC(C)C)cc1C1CCNCC1 [Ceritinib, 5-Chloro-N2-(2-isopropoxy-5-methyl-4-(piperidin-4-yl)phenyl)-N4-(2-(isopropylsulfonyl)phenyl)pyrimidine-2,4-diamine, reference compound]
[1]
  IC50: 2900 nM
[5]
  drug found in the brain: 0.4%

## Cc1cc(Nc2ncc(Cl)c(Nc3ccccc3S(=O)(=O)C(C)C)n2)c(OC(C)C)cc1C1CCN(CCF)CC1 [Compound 9, 5-Chloro-N2–(2-isoprpoxy-5-methyl-4-(1-fluoroethylpiperidin-4-yl)phenyl)-N4-[2-(propane-2-sulfonyl)phenyl]pyrimidine-2,4-diamine]
[1]
  fold loss of potency versus parent drug: ~10 fold
[2]
  solubility in saline or PBS solutions: not soluble

## CCc1cc2c(cc1N1CCC(N3CCOCC3)CC1)C(C)(C)c1c(c3ccc(C#N)cc3n1CCF)C2=O [Compound 4, 9-Ethyl-6,6-dimethyl-8-[4-(morpholin-4-yl)piperidin-1-yl]-11-oxo-6,11-dihydro-5(2-fluoroethyl)-benzo[b]carbazole-3-carbonitrile]
[6]
  effect on ALK-negative H441 cells (cytotoxicity): no substantial effect
[2]
  solubility in saline or PBS solutions: not soluble
